Measured values taken from US6017918A, “Phenyl glycine compounds and methods of treating atherosclerosis and restenosis” (Warner-Lambert Company, priority 1999, dated 2000).
Values joined by “and” are separate entries in the source; they are usually repeats but may differ in a detail not shown here. Equal entries are not always repeated.

Columns and labels:
[1] = test system: apolipoprotein(a), [apo(a)], apolipoproteinB-100, [apoB-100], coupling reaction that generates Lp(a); assay: LPABC screen: lipoprotein(a) biochemical coupling assay, Lp(a) by ELISA; settings: recombinant apo(a) + HepG2 conditioned media, 67 minutes, 37° C.; ^a = multiple tests
Source text: The lipoprotein(a), [Lp(a)], biochemical coupling assay (LPABC) is used to characterize inhibitors of the apolipoprotein(a), [apo(a)], apolipoproteinB-100, [apoB-100], coupling reaction that generates Lp(a).
Protocol Conditioned media from 293 cells (ATCC CRL-1573), permanently transfected with an apo(a) 17-kringle cDNA expression construct (pcDNA-AMP, In Vitrogen, Carlsbad, Calif.) using standard molecular biology techniques, was used as a source of recombinant apo(a). The 293 cell conditioned media containing the recombinant apo(a) is diluted 1:3 with phosphate buffered saline (PBS) and 90 μL is pipetted into each well of a 96-well plate and placed into a 37° C. incubator for 10 minutes. Twenty microliters of a 0.3 to 50 μM solution of a compound of the present invention in PBS is added to the warmed plate. Ninety microliters of HepG2 (ATCC HB-8065) cell conditioned media diluted 1:3 with PBS is added to the apo(a)/compound mixture and mixed by pipetting up and down 5 times. The reaction is incubated for 67 minutes in a 37° C. incubator. A 100 μL aliquot of the reaction is removed and assayed for its Lp(a) content by an enzyme linked immunosorbent assay (ELISA).

[2] = test system: Lp(a) production (HepG2^K17 cells); assay: LPA3 screen: inhibition of Lp(a) production in HepG2^K17 cells, Lp(a) by ELISA; type: cell-based; settings: 8 h, Lp(a) normalized for total protein, ^a = multiple tests
Procedure: The LPA3 screen is used to identify compounds that inhibit Lp(a) production. This screen employs permanently transfected HepG2 cells (HepG2^K17) that are generated using an apo(a) 17-kringle cDNA expression construct (pcDNA-AMP, In Vitrogen, Carlsbad, Calif.) in accordance with methods that are well-known in molecular biology.
HepG2^K17 cells are seeded in 96-well plates at a density of 75,000 cells per well in 0.25 mL of Dulbecco's Modified Eagle Media (DMEM) containing 10% fetal bovine serum (FBS). Seeded plates are incubated overnight in a 37° C., 5% CO2 /95% […] incubator. The media is removed, replaced with (1) fresh media, or (2) fresh media plus 0.3 to 50 μM of a compound of the present invention in 20 μL of PBS, and the plates returned to the incubator for 8 hours. After the additional 8 hours of incubation, Lp(a) is assayed in the media by ELISA. Cells are digested with 0.5N NaOH overnight and assayed for total protein. Lp(a) values are normalized for total protein content.

SMILES | IC50 [1] | IC50 [2] [µM]
CCOC(=O)C(NCc1ccc(Cl)cc1Cl)c1cc(C(C)(C)C)c(O)c(C(C)(C)C)c1 (centres unmarked) [Example 36, (3,5-Di-tert-butyl-4-hydroxy-phenyl)-(2,4-dichloro-benzylamino)-acetic acid ethyl ester] | 47.9 µM | > 74
CCOC(=O)C(NCC1CCCCC1)c1cc(C(C)CC)c(O)c(C(C)CC)c1 (centres unmarked) [Example 13, (Cyclohexylmethyl-amino)-(3,5-di-sec-butyl-4-hydroxy-phenyl)-acetic acid ethyl ester] | 67.4 µM | 
CCOC(=O)C(c1cc(C(C)(C)C)c(O)c(C(C)(C)C)c1)N(Cc1cccnc1)Cc1cccnc1 (centres unmarked) [Example 9, (Bis-pyridin-3-ylmethyl-amino)-(3,5-di-tert-butyl-4-hydroxy-phenyl)-acetic acid ethyl ester] | 1.34 µM and 1.3 µM | 
CCOC(=O)C(NCc1ccsc1)c1cc(C(C)(C)C)c(O)c(C(C)(C)C)c1 (centres unmarked) [Example 46, (3,5-Di-tert-butyl-4-hydroxy-phenyl)-[(thiophen-3-ylmethyl)-amino]-acetic acid ethyl ester] | 34.5 µM | > 74
CCOC(=O)C(NCc1cccc(C(F)(F)F)c1)c1cc(C(C)(C)C)c(O)c(C(C)(C)C)c1 (centres unmarked) [Example 48, (3,5-Di-tert-butyl-4-hydroxy-phenyl)-(3-trifluoromethyl-benzylamino)-acetic acid ethyl ester] | 53.9 µM | > 74
CCOC(=O)C(NCc1cc(C(C)(C)C)c(O)c(C(C)(C)C)c1)c1cc(C(C)(C)C)c(O)c(C(C)(C)C)c1 (centres unmarked) [Example 18] | 75 µM | 
CCOC(=O)C(NCc1ccccc1C(F)(F)F)c1cc(C(C)(C)C)c(O)c(C(C)(C)C)c1 (centres unmarked) [Example 47, (3,5-Di-tert-butyl-4-hydroxy-phenyl)-(2-trifluoromethyl-benzylamino)-acetic acid ethyl ester] | 33.4 µM | > 74
CCOC(=O)C(NCc1ccc(N)cc1)c1cc(C(C)(C)C)c(O)c(C(C)(C)C)c1 (centres unmarked) [Example 30, (4-Amino-benzylamino)-(3,5-di-tert-butyl-4-hydroxy-phenyl)-acetic acid ethyl ester] | 62.6 µM | > 74
CCOC(=O)C(NCc1ccc(N(C)C)cc1)c1cc(C(C)(C)C)c(O)c(C(C)(C)C)c1 (centres unmarked) [Example 38, (3,5-Di-tert-butyl-4-hydroxy-phenyl)-[4-dimethylamino-benzylamino]-acetic acid ethyl ester] | 54 µM | > 74
CCOC(=O)C(NCc1cccc(Cl)c1)c1cc(C(C)(C)C)c(O)c(C(C)(C)C)c1 (centres unmarked) [Example 10, (3-Chloro-benzylamino)-(3,5-di-tert-butyl-4-hydroxy-phenyl)-acetic acid ethyl ester] | 12.5 µM | 
CCOC(=O)C(NCc1cc2c(cc1N)OCO2)c1cc(C(C)(C)C)c(O)c(C(C)(C)C)c1 (centres unmarked) [Example 31, [(6-Amino-benzo[1,3]dioxol-5-ylmethyl)-amino]-(3,5-di-tert-butyl-4-hydroxy-phenyl)-acetic acid ethyl ester] | 21 µM | > 74
CCOC(=O)C(NCc1ccc(O)cc1)c1cc(C(C)(C)C)c(O)c(C(C)(C)C)c1 (centres unmarked) [Example 43, (3,5-Di-tert-butyl-4-hydroxy-phenyl)-(4-hydroxy-benzylamino)-acetic acid ethyl ester] |  | > 74
CCOC(=O)C(NCc1ccc(C#N)cc1)c1cc(C(C)(C)C)c(O)c(C(C)(C)C)c1 (centres unmarked) [Example 34, (4-Cyano-benzylamino)-(3,5-di-tert-butyl-4-hydroxy-phenyl)-acetic acid ethyl ester] | 57.6 µM | > 74
CCOC(=O)C(NCC1CCCCC1)c1cc(-c2ccccc2)c(O)c(-c2ccccc2)c1 (centres unmarked) [Example 11, (Cyclohexylmethyl-amino)-(2'-hydroxy-[1,1';3',1"]terphenyl-5'-yl)-acetic acid ethyl ester] | 60.2 µM | 
CCOC(=O)C(NCc1ccccc1OC)c1cc(C(C)(C)C)c(O)c(C(C)(C)C)c1 (centres unmarked) [Example 44, (3,5-Di-tert-butyl-4-hydroxy-phenyl)-(2-methoxy-benzylamino)-acetic acid ethyl ester] | 54.3 µM | > 74
CCOC(=O)C(NCc1ccc(OC)cc1)c1cc(C(C)(C)C)c(O)c(C(C)(C)C)c1 (centres unmarked) [Example 32, (3,5-Di-tert-butyl-4-hydroxy-phenyl)-(4-methoxy-benzylamino)-acetic acid ethyl ester] | 29.6 µM | > 74
CCOC(=O)C(NCc1ccc(OCCN(CC)CC)cc1)c1cc(C(C)(C)C)c(O)c(C(C)(C)C)c1 (centres unmarked) [Example 37, (3,5-Di-tert-butyl-4-hydroxy-phenyl)-[4-(2-diethylamino-ethoxy)-benzylamino]-acetic acid ethyl ester] | 29.6 µM | 
CC(C)(C)c1cc(C(NCc2cccnc2)C(=O)O)cc(C(C)(C)C)c1O (centres unmarked) [Example 7, (3,5-Di-tert-butyl-4-hydroxy-phenyl)-[(pyridin-3-ylmethyl)-amino]-acetic acid] | 62.2 µM | 

Continued by falling IC50 [1], values first:

IC50 [1] | SMILES | IC50 [2] [µM]
12.2 µM | CCOC(=O)C(NCC1CC1)c1cc(C(C)(C)C)c(O)c(C(C)(C)C)c1 (centres unmarked) [Example 12, (Cyclopropylmethyl-amino)-(3,5-di-tert-butyl-4-hydroxy-phenyl)-acetic acid ethyl ester] | 
10.9 µM | CCNC(C(=O)OCC)c1cc(C(C)(C)C)c(O)c(C(C)(C)C)c1 (centres unmarked) [Example 51, (3,5-Di-tert-butyl-4-hydroxy-phenyl)-(ethylamino)-acetic acid ethyl ester] | 
10.6 µM | CCOC(=O)C(NCc1cc(O)c(OC)c(OC)c1)c1cc(C(C)(C)C)c(O)c(C(C)(C)C)c1 (centres unmarked) [Example 14, (3,5-Di-tert-butyl-4-hydroxy-phenyl)-(3-hydroxy-4,5-dimethoxy-benzylamino)-acetic acid ethyl ester] | 9.3
10.3 µM | CCOC(=O)C(NCc1ccccc1)c1cc(C(C)(C)C)c(O)c(C(C)(C)C)c1 (centres unmarked) [Example 5, Benzylamino-(3,5-di-tert-butyl-4-hydroxy-phenyl)-acetic acid ethyl ester] | 76
10.3 µM | CCOC(=O)C(NCc1cc(OC)c(OC)c(OC)c1)c1cc(C(C)(C)C)c(O)c(C(C)(C)C)c1 (centres unmarked) [Example 15, (3,5-Di-tert-butyl-4-hydroxy-phenyl)-(3,4,5-trimethoxy-benzylamino)-acetic acid ethyl ester] | 4.6
9.37 µM | CCOC(=O)C(NCc1ccoc1)c1cc(C(C)(C)C)c(O)c(C(C)(C)C)c1 (centres unmarked) [Example 41, (3,5-Di-tert-butyl-4-hydroxy-phenyl)-[(furan-3-ylmethyl)-amino]-acetic acid ethyl ester] | 
7.27 µM | CCOC(=O)C(NCc1ccncc1)c1cc(C(C)(C)C)c(O)c(C(C)(C)C)c1 (centres unmarked) [Example 3, (3,5-Di-tert-butyl-4-hydroxy-phenyl)-[(pyridin-4-ylmethyl)-amino]-acetic acid ethyl ester] | 25.4
6.48 µM | CCOC(=O)C(NCc1ccccn1)c1cc(C(C)(C)C)c(O)c(C(C)(C)C)c1 (centres unmarked) [Example 4] | 9.1
6.48 µM | CCOC(=O)C(Nc1cccnc1)c1cc(C(C)(C)C)c(O)c(C(C)(C)C)c1 (centres unmarked) [Example 1, (3,5-Di-tert-butyl-4-hydroxy-phenyl)-[(pyridin-3-yl)-amino]-acetic acid ethyl ester] | 7.6
4.16 µM | CCOC(=O)C(NC1CCCCC1)c1cc(C(C)(C)C)c(O)c(C(C)(C)C)c1 (centres unmarked) [Example 8, (3,5-Di-tert-butyl-4-hydroxy-phenyl)-[(cyclohexyl)-amino]-acetic acid etyl ester] | 
1.66 µM | CCOC(=O)C(c1cc(C(C)(C)C)c(O)c(C(C)(C)C)c1)N1CCN(C)CC1 (centres unmarked) [Example 55, (3,5-Di-tert-butyl-4-hydroxy-phenyl)-[(N'-methyl)-N-piperazinyl]-acetic acid ethyl ester] | 
1.48 µM | CCOC(=O)C(c1cc(C(C)(C)C)c(O)c(C(C)(C)C)c1)N(Cc1cccnc1)CC1CCCCC1 (centres unmarked) [Example 16, (Cyclohexylmethyl-pyridin-3-ylmethyl-amino)-(3,5-di-tert-butyl-4-hydroxy-phenyl)-acetic acid ethyl ester] | 3.7
0.8 µM | CCOC(=O)C(c1cc(C(C)(C)C)c(O)c(C(C)(C)C)c1)N1CCOCC1 (centres unmarked) [Example 54, (3,5-Di-tert-butyl-4-hydroxy-phenyl)-(N-morpholinyl)-acetic acid ethyl ester] | 1.3
0.65 µM | CCOC(=O)C(c1cc(C(C)(C)C)c(O)c(C(C)(C)C)c1)N(C)C (centres unmarked) [Example 17, (3,5-Di-tert-butyl-4-hydroxy-phenyl)-dimethylamino-acetic acid ethyl ester] | 
